Results published in patent publication US20050080096A1, “Condensed heterocyclic compounds” (priority 2002, published 2005).

Biological target: recombinant human PARP (Homo sapiens, UniProt P09874)
Assay: PARP Inhibitory Activity (In vitro assay)
Assay type: biochemical
Conditions: 32P-NAD, activated DNA, 15 minutes at room temperature, pH8.0
Experimental: The recombinant human PARP (5.3 mg protein/ml) were incubated with a test compound in a 100 μl reaction buffer containing the indicated concentration of 1 mCi/ml ^32P-NAD, 50 mM Tris-HCl, 25 mM MgCl2, 1 mM DTT (dithiothreitol), 0.05 mM NAD (nicotinamido adenine dinucleotide), lmg/mi activated DNA, pH8.0. Incubation was for 15 minutes at a room temperature and the reaction was stopped by the addition of 200 μl of ice-cold 20% trichloroacetic acid followed by rapid filtration through GF/B filters. The filters were treated with scintillation fluid and acid-insoluble counts were measured for quantification of unit activity.
PARP Inhibitory Activity (%)=
[1-(enzyme activity with test compound)/(enzyme activity with vehicle)]×100

Chain of recombinant human PARP (P09874 whole entry): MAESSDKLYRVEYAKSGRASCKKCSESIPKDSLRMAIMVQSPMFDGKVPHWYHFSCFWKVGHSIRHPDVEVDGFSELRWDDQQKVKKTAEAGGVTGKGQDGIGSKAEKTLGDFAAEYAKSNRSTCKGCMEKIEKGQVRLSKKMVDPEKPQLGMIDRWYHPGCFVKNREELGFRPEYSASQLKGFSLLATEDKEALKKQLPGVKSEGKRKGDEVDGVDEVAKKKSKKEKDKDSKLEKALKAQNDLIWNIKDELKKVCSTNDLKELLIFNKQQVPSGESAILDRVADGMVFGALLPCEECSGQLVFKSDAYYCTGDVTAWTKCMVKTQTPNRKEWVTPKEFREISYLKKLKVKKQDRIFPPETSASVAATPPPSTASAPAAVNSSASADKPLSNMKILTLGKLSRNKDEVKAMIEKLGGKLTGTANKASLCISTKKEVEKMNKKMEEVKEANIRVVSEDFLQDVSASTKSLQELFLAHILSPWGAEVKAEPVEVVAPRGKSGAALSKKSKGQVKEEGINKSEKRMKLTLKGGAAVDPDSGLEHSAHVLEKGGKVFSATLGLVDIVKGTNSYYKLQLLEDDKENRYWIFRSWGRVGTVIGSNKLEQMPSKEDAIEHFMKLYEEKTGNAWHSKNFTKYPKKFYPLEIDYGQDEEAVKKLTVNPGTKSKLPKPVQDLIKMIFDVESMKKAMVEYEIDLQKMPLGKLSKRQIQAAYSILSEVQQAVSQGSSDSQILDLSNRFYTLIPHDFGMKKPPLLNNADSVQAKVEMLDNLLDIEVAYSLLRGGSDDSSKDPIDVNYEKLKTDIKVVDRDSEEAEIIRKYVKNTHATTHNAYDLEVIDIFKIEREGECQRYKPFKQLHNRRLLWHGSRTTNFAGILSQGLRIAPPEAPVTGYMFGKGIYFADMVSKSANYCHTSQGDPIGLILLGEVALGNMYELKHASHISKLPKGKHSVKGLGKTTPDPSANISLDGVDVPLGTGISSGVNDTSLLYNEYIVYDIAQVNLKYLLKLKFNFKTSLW

O=c1[nH]c(CCCN2CC=C(c3ccccc3)CC2)nc2c1CCCC2 [Compound A, 2-[3-(4-Phenyl-3,6-dihydro-1(2H)-pyridyl)propyl]-5,6,7,8-tetrahydro-4(3H)-quinazolinone]
IC50: < 500 nM

O=c1[nH]c(CCCN2CC=C(c3ccccc3)CC2)nc2c1CSCC2 [Compound B, 2-[3-(4-Phenyl-3,6-dihydro-1(2H)-pyridyl)propyl]-3,5,7,8-tetrahydro4H-thiopyrano[4,3-d]pyrimidin-4-one]
IC50: < 500 nM

O=c1[nH]nc(CCCCN2CC=C(c3ccccc3)CC2)c2ccccc12 [Compound C, 4-[4-(4-Phenyl-3,6dihydro-1(2H)-pyridyl)butyl]-1(2H)-phthalazinone]
IC50: < 500 nM

Cn1c2c(c3ccccc31)CCN(CCCCc1n[nH]c(=O)c3ccccc13)C2 [Compound D]
IC50: < 500 nM
